# Assay results taken from US11725015B2, “Macrocyclic compound and uses thereof” (President and Fellows of Harvard College, priority 2017, dated 2023).
# Tests used:
# [1] = test system: human squamous cell carcinoma of the head and neck (SCCHN) cell line FaDu; test: FaDu growth inhibition assay; format: cell-based; conditions: 3 days incubation, CellTiter-Glo
# Method: In this assay, the growth inhibitory activity of test compounds in a human squamous cell carcinoma of the head and neck (SCCHN) cell line FaDu was measured. FaDu cells were maintained in an RPMI-1640 (Wako Pure Chemical Industries, Ltd., 187-02021) medium containing 10% fetal bovine serum (FBS: Nichirei, 12D168), and penicillin and streptomycin in a 5% CO2 incubator (37° C.). To each well of a 96 well plate (Becton, Dickinson and Company, 353219), 75 μL of FaDu cell suspension adjusted to a concentration of 4×10^4 cells/mL with the culture medium was added, and the cells were incubated overnight in a 5% CO2 incubator (37° C.). On the next day, 25 μL of Compound (1) or Halichondrin B in three-fold dilution series suspended in the culture medium was added to each well, and the resultant was incubated for 3 days in a 5% CO2 incubator (37° C.). Then, cell viability was determined by CellTiter-Glo® Luminescent Cell Viability Assay (Promega) with EnVision 2103 Multilabel Reader (Perkin-Elmer, Wellesley, Mass.). Value of the wells containing cells without adding the test compounds was defined as 100% and the value of the wells containing no cells was defined as 0%. The concentration of the test compound necessary for inhibiting the cell growth by 50% (i.e., an IC50 value) was calculated, and shown in Table 1.
# [2] = biological target: T1, tubulin protein purified from porcine brain (Sus scrofa, UniProt P02550+P02554); test: Cell-free tubulin polymerization assay; format: biochemical; conditions: final concentrations 0.625-10 μmol/L
# T1 construct: lyophilized tubulin protein purified from porcine brain; purchased Cytoskeleton, Inc. BK011P; host or cells: porcine brain (tissue-purified)
# Method: Tubulin Polymerization Assay kit was purchased from Cytoskeleton, Inc. (Cat. #BK011P). The kit contained 1 bottle of lyophilized tubulin protein purified from porcine brain, 3 tubes of lyophilized GTP, 2 bottles of lyophilized assay buffer, and 1 bottle of tubulin glycerol buffer. Assay buffer was prepared by dissolving the contents in 10 mL of deionized and sterilized water. This solution contained 80 mmol/L piperazine-N,N′-bis[2-ethanesulfonic acid] sesquisodium salt, 2.0 mmol/L magnesium chloride, 0.5 mmol/L ethylene glycol-bis(2-amino-ethyl ether) N,N,N′,N′-tetra-acetic acid, pH 6.9, and 10 μmol/L fluorescent reporter. The buffer was stored at −70° C. until use. […]
# In the tubulin polymerization assay, reaction mixture was prepared by mixing 820 μL of assay buffer, 17.6 μL of GTP stock solution, and 600 μL of tubulin glycerol buffer. […] Fluorescence emission at 460 nm (excitation wavelength at 360 nm) was measured every 2 minutes for 90 minutes using the SpectraMax® M5e microplate reader (Molecular Devices). Tubulin polymerization was followed by fluorescence enhancement due to the incorporation of a fluorescence reporter into microtubules as polymerization occurred. […]
# [3] = test system: OE21 (human squamous cell carcinoma of the esophagus); test: In vitro antiproliferative activity, OE21; format: cell-based; conditions: OE21, 72 hours
# Method: (§1) The in vitro antiproliferative assays for Compound (1) were conducted using a small panel of cancer cell lines including human squamous cell carcinoma of the esophagus (OE21, TE-8), human adenocarcinoma of the esophagus (OE33), and human uterine sarcoma (MES-SA, MES-SA-Dx5-Rx1). All cell lines were cultured in RPMI-1640 medium containing 10% FBS, and penicillin-streptomycin (culture medium), in a 5% CO2 incubator (37° C.). To each well of a 96 well plate (Becton, Dickinson and Company, 353219), 75 μL of cell suspension adjusted to a concentration of 4×10^4 cells/mL with the culture medium was added, and the cells were incubated overnight in a 5% CO2 incubator (37° C.). On the next day, 25 μL of Compound (1) in three-fold dilution series suspended in the culture medium was added to each well, and the resultant was incubated for 72 hours in a 5% CO2 incubator (37° C.). Then, cell viability was determined by CellTiter-Glo® Luminescent Cell Viability Assay (Promega) with 2013 EnVision™ Multilabel Reader (Perkin-Elmer, Wellesley, Mass.). Value of the wells containing cells without adding the test compounds was defined as 100% and the value of the wells containing no cells was defined as 0%. […] The P-gp susceptibility was calculated as the ratio of the IC50 value in MES-SA-Dx5-Rx1 cells, which overexpress P-gp, to the IC50 value in MES-SA cells.
# [4] = test system: OE33 (human adenocarcinoma of the esophagus); test: In vitro antiproliferative activity, OE33; format: cell-based; conditions: OE33, 72 hours
# Method: as §1
# T1 sequence (P02554 whole entry): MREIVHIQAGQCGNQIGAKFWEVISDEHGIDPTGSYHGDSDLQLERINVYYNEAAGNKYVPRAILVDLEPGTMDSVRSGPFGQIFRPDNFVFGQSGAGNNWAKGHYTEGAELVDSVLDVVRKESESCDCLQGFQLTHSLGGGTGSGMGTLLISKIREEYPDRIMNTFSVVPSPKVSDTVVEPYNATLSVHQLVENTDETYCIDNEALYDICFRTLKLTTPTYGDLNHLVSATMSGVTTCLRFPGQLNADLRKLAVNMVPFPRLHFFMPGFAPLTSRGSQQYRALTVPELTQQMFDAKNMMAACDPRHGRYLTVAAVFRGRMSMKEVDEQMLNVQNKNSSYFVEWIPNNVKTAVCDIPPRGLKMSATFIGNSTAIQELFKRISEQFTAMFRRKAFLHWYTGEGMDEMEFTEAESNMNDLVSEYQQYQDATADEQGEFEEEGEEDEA
# T1 sequence (P02550 whole entry): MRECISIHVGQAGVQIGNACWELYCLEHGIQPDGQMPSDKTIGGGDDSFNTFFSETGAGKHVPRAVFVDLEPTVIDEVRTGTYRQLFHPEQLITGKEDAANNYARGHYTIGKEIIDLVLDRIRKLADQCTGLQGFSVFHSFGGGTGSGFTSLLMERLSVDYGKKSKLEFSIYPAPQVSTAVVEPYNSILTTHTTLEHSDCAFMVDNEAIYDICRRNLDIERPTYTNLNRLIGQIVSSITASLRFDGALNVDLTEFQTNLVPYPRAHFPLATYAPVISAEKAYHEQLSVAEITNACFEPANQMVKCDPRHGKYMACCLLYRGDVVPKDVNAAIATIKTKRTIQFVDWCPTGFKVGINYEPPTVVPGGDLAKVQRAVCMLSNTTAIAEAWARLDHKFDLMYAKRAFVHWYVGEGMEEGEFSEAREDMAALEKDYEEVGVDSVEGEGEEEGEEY
smiles,measurement,setting,value
C=C1C[C@@H]2CC[C@@]34C[C@H]5O[C@H]6[C@@H](O3)[C@H]3O[C@H](CC[C@@H]3O[C@H]6C5O4)CC(=O)O[C@@H]3[C@@H](C)[C@@H]4O[C@@H]5C[C@]6(C[C@@H]7O[C@]8(C[C@H](C)[C@@H]9O[C@H](CN)[C@H](O)C[C@@H]9O8)C[C@H](C)[C@@H]7O6)O[C@@H]5C[C@@H]4O[C@H]3C[C@H]3O[C@@H](CC[C@@H]1O2)C[C@@H](C)C3=C [Compound (1)],IC50,[1],0.0714 nM
same,effect on tubulin polymerization,[2],inhibited tubulin polymerization in a concentration-dependent manner
same,antiproliferative activity,[3],potent antiproliferative agent
same,antiproliferative activity,[4],potent antiproliferative agent
